Reference: article PMC7397269, “Synthesis and Evaluation of New Coumarin Derivatives as Antioxidant, Antimicrobial, and Anti-Inflammatory Agents” (Molecules, 2020)
Converted amounts (≈) assume the structure as drawn. Like-named read-outs stand apart in the source and are kept apart here.

Tests used:
[1] = DPPH antioxidant assay (radical scavenging); format: biochemical; conditions: mean ± SD (n = 3)
How it was run: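 Compounds, starting at 200 μg/mL, were mixed with 0.2 mM methanolic DPPH and incubated 30 min in the dark at 25 °C; absorbance was read at 515 nm. % inhibition is background-corrected against DPPH-only control, with IC50 from curve fit. Runs were triplicate (mean ± SD), with ascorbic acid as positive control.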

[2] = test system: Escherichia coli ATCC 2592; assay: Agar well diffusion, E. coli; format: cell-based; conditions: ATCC2592, 100 μL of 10 mg/mL in DMSO, read-out: diameter of inhibition zone, EC
How it was run: (§1)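 Agar well diffusion; NA for bacteria, SDA for yeast; inoculum 1 × 10^8 CFU/mL bacteria, 1 × 10^6 CFU/mL yeast. 100 μL of 10 mg/mL compound in DMSO per 10 mm well. 24 h, 37 °C; zone diameter, mm, n=3.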

[3] = test system: Pseudomonas aeruginosa ATCC 27,953; assay: Agar well diffusion, P. aeruginosa; format: cell-based; conditions: ATCC27, 100 μL of 10 mg/mL in DMSO, read-out: diameter of inhibition zone, PA
How it was run: as §1

[4] = test system: Saccharomyces cerevisiae local isolate; assay: Agar well diffusion, S. cerevisiae; format: cell-based; conditions: read-out: diameter of inhibition zone, SC
How it was run: as §1

[5] = test system: Candida albicans NRRL Y-477; assay: Agar well diffusion, C. albicans; format: cell-based; conditions: NRRLY477, 100 μL of 10 mg/mL in DMSO, read-out: diameter of inhibition zone, CA
How it was run: as §1

[6] = test system: Staphylococcus aureus ATCC 29213; assay: MIC, two-fold serial dilution, S. aureus; format: cell-based; conditions: ATCC29213, read-out: Minimum inhibitory concentration, SA
How it was run: (§2)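 Compounds with agar-well inhibition zone >16 mm went on to two-fold broth dilution at final 1000, 500, 250 and 125 μg/mL. Inocula were 1×10^8 CFU/mL for bacteria and 1×10^6 CFU/mL for yeast (0.1 mL per 5 mL), incubated 37 °C for 24 h. MIC taken as the lowest concentration with no growth.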

[7] = test system: Bacillus megaterium ATCC 9885; assay: MIC, two-fold serial dilution, B. megaterium; format: cell-based; conditions: Priestia megaterium, ATCC9885, read-out: Minimum inhibitory concentration, BM
How it was run: as §2

[8] = test system: Escherichia coli ATCC 2592; assay: MIC, two-fold serial dilution, E. coli; format: cell-based; conditions: ATCC2592, read-out: Minimum inhibitory concentration, EC
How it was run: as §2

[9] = test system: Saccharomyces cerevisiae local isolate; assay: MIC, two-fold serial dilution, S. cerevisiae; format: cell-based; conditions: read-out: Minimum inhibitory concentration, SC
How it was run: as §2

[10] = test system: Candida albicans NRRL Y-477; assay: MIC, two-fold serial dilution, C. albicans; format: cell-based; conditions: NRRLY477, read-out: Minimum inhibitory concentration, CA
How it was run: as §2

tested microorganisms = assay: MIC, summary over the tested microorganisms; format: cell-based; conditions: two-fold serial dilution
Source text: The new molecules were individually tested for their antimicrobial activity in vitro against standard bacteria strains from the American Type Culture Collection (ATCC), namely, Staphylococcus aureus ATCC 29213, Bacillus subtilis ATCC 6633, Bacillus megaterium ATCC 9885 (Gram-positive), Escherichia coli ATCC 2592, and Pseudomonas aeruginosa ATCC 27,953 (Gram-negative). The compounds were also microbiologically tested against locally isolated Saccharomyces cerevisiae (yeast) and the standard Agricultural Research Service Culture Collection (NRRL) strain of the yeast-like pathogenic fungus Candida albicans NRRL Y-477. Primary screening was conducted using the agar well diffusion method using nutrient agar (NA) medium and Sabourand dextrose agar (SDA) medium for the tested pathological bacteria and yeast, respectively. […].
The bacteriostatic activity of the active compounds (having IZ > 16 mm) was then evaluated using the two-fold serial dilution technique. Two-fold serial dilutions of the tested compounds solutions were prepared using the proper nutrient broth to reach final concentrations of 1000, 500, 250, and 125 μg/mL. The tubes were then inoculated with the test microorganisms grown in their suitable broth at 37 °C for 24 h (1 × 10^8 CFU/mL for bacteria and 1 × 10^6 CFU/mL of yeast), 0.1 mL of the above inoculum was administered per 5 mL, and the tubes were incubated at 37 °C for 24 h. The lowest concentration showing no growth was taken as the MIC.

[11] = test system: formaldehyde-induced rat paw oedema; assay: Formaldehyde-induced rat paw oedema (prophylactic); format: in vivo; conditions: 2.5 mg/kg orally, 1 h after inducing inflammation
[12] = read-out: MIC against Gram-positive bacteria
[13] = well diffusion, 100 μL of 10 mg/mL in DMSO, S. cerevisiae
[14] = two-fold serial dilution, S. cerevisiae
[15] = read-out: MIC against one or more tested microorganisms

Row | MIC [9, 14] [µg/mL] | Structure (SMILES) | IC50 [1] | zone of inhibition at 10000 µg/mL [2] [mm] | zone of inhibition at 10000 µg/mL [3] [mm] | zone of inhibition at 10000 µg/mL [4] [mm] | zone of inhibition at 10000 µg/mL [5] [mm] | MIC [6] [µg/mL] | MIC [7] [µg/mL] | MIC [8] [µg/mL] | MIC [9] [µg/mL] | MIC [10] [µg/mL] | MIC (tested microorganisms; [12]) [µg/mL] | melting point [°C] | % inhibition of paw oedema [11] [%] | zone of inhibition at 10000 µg/mL [4, 13] [mm] | MIC (tested microorganisms; [15]) [µg/mL] | MIC (tested microorganisms; read-out: MIC against all microorganisms) [µg/mL]
1 | – | Cc1ccc2oc(=O)c3c(c2c1)OC(N)=C(C#N)C3c1ccc([N+](=O)[O-])cc1 (racemic) [2a, (±)-2-Amino-9-methyl-4-(4-nitrophenyl)-5-oxo-4H,5H-pyrano[3,2-c]chromene-3-carbonitrile] | — ((—): inactive (IC50 > 200 μg/mL)) | 18 | 20 | 25 | 22 | 500 (≈ 1330 µM) | 500 (≈ 1330 µM) | 1000 (≈ 2660 µM) | 500 (≈ 1330 µM) | 500 (≈ 1330 µM) | 500 to 1000 (≈ 1330 to 2660 µM) | 259 to 261 | – | – | – | –
2 | – | Cc1ccc2oc(=O)c3c(c2c1)OC(N)=C(C#N)C3c1ccco1 (racemic) [2b, (±)-2-Amino-4-(furan-2-yl)-9-methyl-5-oxo-4H,5H-pyrano[3,2-c]chromene-3-carbonitrile] | — ((—): inactive (IC50 > 200 μg/mL)) | 18 | 21 | 27 | 23 | 500 (≈ 1560 µM) | 500 (≈ 1560 µM) | 1000 (≈ 3120 µM) | 500 (≈ 1560 µM) | 500 (≈ 1560 µM) | 500 to 1000 (≈ 1560 to 3120 µM) | 251 to 253 | 6.57 | – | – | –
3 | – | COc1cc(/C=N/C2=C(C#N)C(c3ccc([N+](=O)[O-])cc3)c3c(c4cc(C)ccc4oc3=O)O2)cc(OC)c1OC (racemic) [5c, (±)-9-methyl-4-(4-nitrophenyl)-5-oxo-2-((3,4,5-trimethoxybenzylidene)amino)-4H,5H-pyrano[3,2-c]chromene-3-carbonitrile] | — ((—): inactive (IC50 > 200 μg/mL)) | 24 | 25 | 27 | 24 | 500 (≈ 903 µM) | 500 (≈ 903 µM) | 500 (≈ 903 µM) | 500 (≈ 903 µM) | 500 (≈ 903 µM) | – | 221 to 223 | – | – | – | –
4 | – | Cc1ccc2oc(=O)c3c(c2c1)OC(/N=C/c1ccc(Cl)cc1Cl)=C(C#N)C3c1ccco1 (racemic) [5f, (±)-2-((2,4-dichlorobenzylidene)amino)-4-(furan-2-yl)-9-methyl-5-oxo-4H,5H-pyrano[3,2-c]chromene-3-carbonitrile] | — ((—): inactive (IC50 > 200 μg/mL)) | 20 | 21 | 24 | 22 | 500 (≈ 1050 µM) | 1000 (≈ 2100 µM) | 1000 (≈ 2100 µM) | 500 (≈ 1050 µM) | 500 (≈ 1050 µM) | 500 to 1000 (≈ 1050 to 2100 µM) | > 300 | – | – | – | –
5 | 250 (≈ 580 µM) | NS(=O)(=O)c1ccc(NS(=O)(=O)c2c(O)c3cc(Cl)ccc3oc2=O)cc1 [7a, 6-Chloro-4-hydroxy-2-oxo-N-(4-sulfamoylphenyl)-2H-chromene-3-sulfonamide] | 93.12 ± 0.727 µg/mL (≈ 216 µM) | 28 | 27 | – | 26 | 250 (≈ 580 µM) | 500 (≈ 1160 µM) | 250 (≈ 580 µM) | – | 250 (≈ 580 µM) | – | 245 to 247 | – | 26 | – | –
6 | 1000 (≈ 1950 µM) | O=c1oc2ccc(Cl)cc2c(O)c1S(=O)(=O)Nc1ccc(S(=O)(=O)Nc2nccs2)cc1 [7e, 6-Chloro-4-hydroxy-2-oxo-N-(4-(N-(thiazol-2-yl)sulfamoyl)phenyl)-2H-chromene-3-sulfonamide] | 71.67 ± 3.231 µg/mL (≈ 139 µM) | 20 | 22 | – | 23 | 500 (≈ 973 µM) | 500 (≈ 973 µM) | 500 (≈ 973 µM) | – | 500 (≈ 973 µM) | – | 215 to 217 | – | 20 | – | –
7 | 250 (≈ 507 µM) | Cc1ccc2oc(=O)c(S(=O)(=O)Nc3ccc(S(=O)(=O)Nc4nccs4)cc3)c(O)c2c1 [7f, 4-Hydroxy-6-methyl-2-oxo-N-(4-(N-(thiazol-2-yl)sulfamoyl)phenyl)-2H-chromene-3-sulfonamide] | 83.52 ± 1.849 µg/mL (≈ 169 µM) | 23 | 24 | – | 24 | 250 (≈ 507 µM) | 250 (≈ 507 µM) | 500 (≈ 1010 µM) | – | 500 (≈ 1010 µM) | – | 167 to 169 | 17.18 | 26 | – | –
8 | 250 (≈ 711 µM) | O=c1oc2ccc(Cl)cc2c(O)c1S(=O)(=O)Nc1ccccc1 [8a, 6-Chloro-4-hydroxy-2-oxo-N-phenyl-2H-chromene-3-sulfonamide] | 14.51 ± 1.827 µg/mL (≈ 41.2 µM) | 25 | 26 | – | 29 | 500 (≈ 1420 µM) | 250 (≈ 711 µM) | 500 (≈ 1420 µM) | – | 250 (≈ 711 µM) | – | 337 to 339 | – | 28 | – | –
9 | 1000 (≈ 3020 µM) | Cc1ccc2oc(=O)c(S(=O)(=O)Nc3ccccc3)c(O)c2c1 [8b, 4-Hydroxy-6-methyl-2-oxo-N-phenyl-2H-chromene-3-sulfonamide] | 19.25 ± 4.171 µg/mL (≈ 58.1 µM) | 18 | 17 | – | 20 | 1000 (≈ 3020 µM) | 1000 (≈ 3020 µM) | 1000 (≈ 3020 µM) | – | 1000 (≈ 3020 µM) | – | 324 to 325 | – | 19 | – | –

Row | Structure (SMILES) | MIC [9, 14] [µg/mL] | IC50 [1] | zone of inhibition at 10000 µg/mL [2] [mm] | zone of inhibition at 10000 µg/mL [3] [mm] | zone of inhibition at 10000 µg/mL [4] [mm] | zone of inhibition at 10000 µg/mL [5] [mm] | MIC [6] [µg/mL] | MIC [7] [µg/mL] | MIC [8] [µg/mL] | MIC [9] [µg/mL] | MIC [10] [µg/mL] | MIC (tested microorganisms; [12]) [µg/mL] | melting point [°C] | % inhibition of paw oedema [11] [%] | zone of inhibition at 10000 µg/mL [4, 13] [mm] | MIC (tested microorganisms; [15]) [µg/mL] | MIC (tested microorganisms; read-out: MIC against all microorganisms) [µg/mL]
10 | O=c1oc2ccc(Cl)cc2c(O)c1S(=O)(=O)Nc1ccc(S(=O)(=O)Nc2ncccn2)cc1 [7c, 6-Chloro-4-hydroxy-2-oxo-N-(4-(N-(pyrimidin-2-yl)sulfamoyl)phenyl)-2H-chromene-3-sulfonamide] | 125 (≈ 246 µM) | 120.12 ± 4.629 µg/mL (≈ 236 µM) | 30 | 24 | – | 27 | 125 (≈ 246 µM) | 125 (≈ 246 µM) | 125 (≈ 246 µM) | – | 125 (≈ 246 µM) | – | 230 to 232 | – | 31 to 32 | 125 (≈ 246 µM) | –
11 | Cc1ccc2oc(=O)c(S(=O)(=O)Nc3ccc(S(=O)(=O)Nc4ncccn4)cc3)c(O)c2c1 [7d, 4-Hydroxy-6-methyl-2-oxo-N-(4-(N-(pyrimidin-2-yl)sulfamoyl)phenyl)-2H-chromene-3-sulfonamide] | 125 (≈ 256 µM) | 112.19 ± 4.391 µg/mL (≈ 230 µM) | 28 | 25 | – | 30 | 125 (≈ 256 µM) | 125 (≈ 256 µM) | 125 (≈ 256 µM) | – | 125 (≈ 256 µM) | – | 207 to 209 | – | 31 to 32 | 125 (≈ 256 µM) | 125 (≈ 256 µM)
12 | Cc1ccc2oc(=O)c(S(=O)(=O)Nc3ccc(O)cc3)c(O)c2c1 [8d, 4-Hydroxy-N-(4-hydroxyphenyl)-6-methyl-2-oxo-2H-chromene-3-sulfonamide] | 125 (≈ 360 µM) | 4.30 ± 0.531 µg/mL (≈ 12.4 µM) | 31 | 31 | – | 30 | 125 (≈ 360 µM) | 250 (≈ 720 µM) | 125 (≈ 360 µM) | – | 125 (≈ 360 µM) | – | 253 to 254 | – | 31 to 32 | 125 (≈ 360 µM) | –
